ChEMBL document CHEMBL3286110, “Synthesis, cytotoxicity, DNA binding and topoisomerase II inhibition of cassiarin A derivatives” (Bioorg Med Chem Lett, 2014)
pIC50: −log10 of the molar value. One block for each compound: values may come before it. Active and inactive are the calls of the source. The calls are words filed in the database; no cut-off is given here.

Columns and labels:
BT-474 [1] = test: Cytotoxicity against human BT474 cells assessed as cell viability at 100 uM after 3 days by MTT assay relative to control; type: functional; conditions: for viability at 100 µM: BT-474, 72 h, read-out: Activity
ChaGo = test: (§1) Cytotoxicity against human ChaGo cells assessed as cell viability at 100 uM after 3 days by MTT assay relative to control; type: functional
SW-620 [2] = test: Cytotoxicity against human SW620 cells assessed as cell viability at 100 uM after 3 days by MTT assay relative to control; type: functional; conditions: for viability at 100 µM: SW-620, 72 h, read-out: Activity
HepG2 [3] = test: Cytotoxicity against human HepG2 cells assessed as cell viability at 100 uM after 3 days by MTT assay relative to control; type: functional; conditions: for viability at 100 µM: HepG2, 72 h, read-out: Activity
KATO III cell = test: (§2) Cytotoxicity against human KATO III cells assessed as cell viability at 100 uM after 3 days by MTT assay relative to control; type: functional
Ca-Ski = test: (§3) Cytotoxicity against human CaSki cells assessed as cell viability at 100 uM after 3 days by MTT assay relative to control; type: functional
[4] = Cytotoxicity against human CaSki cells after 3 days by MTT assay; type: functional, cell-based; conditions: Ca-Ski, 72 h
[5] = as §1; type: functional; conditions: 72 h, read-out: Activity
[6] = as §2; type: functional; conditions: 72 h, read-out: Activity
WI-38 = test: Cytotoxicity against human WI38 cells at 1 to 60 uM after 3 days by MTT assay; type: cell-based; conditions: wi-38, 72 h
Calf thymus DNA [7] = test: Binding affinity to calf thymus DNA assessed as melting temperature at 30 uM by thermal denaturation assay; type: nucleic-acid assay; conditions: Bos taurus
[8] = target: DNA topoisomerase 2-alpha (Homo sapiens) (UniProt P11388); test: Inhibition of human DNA topoisomerase-2-mediated decatenation of kinetoplast DNA at 100 uM after 1 hr by electrophoretic analysis relative to control
Chain of DNA topoisomerase 2-alpha (Homo sapiens) (P11388 whole entry): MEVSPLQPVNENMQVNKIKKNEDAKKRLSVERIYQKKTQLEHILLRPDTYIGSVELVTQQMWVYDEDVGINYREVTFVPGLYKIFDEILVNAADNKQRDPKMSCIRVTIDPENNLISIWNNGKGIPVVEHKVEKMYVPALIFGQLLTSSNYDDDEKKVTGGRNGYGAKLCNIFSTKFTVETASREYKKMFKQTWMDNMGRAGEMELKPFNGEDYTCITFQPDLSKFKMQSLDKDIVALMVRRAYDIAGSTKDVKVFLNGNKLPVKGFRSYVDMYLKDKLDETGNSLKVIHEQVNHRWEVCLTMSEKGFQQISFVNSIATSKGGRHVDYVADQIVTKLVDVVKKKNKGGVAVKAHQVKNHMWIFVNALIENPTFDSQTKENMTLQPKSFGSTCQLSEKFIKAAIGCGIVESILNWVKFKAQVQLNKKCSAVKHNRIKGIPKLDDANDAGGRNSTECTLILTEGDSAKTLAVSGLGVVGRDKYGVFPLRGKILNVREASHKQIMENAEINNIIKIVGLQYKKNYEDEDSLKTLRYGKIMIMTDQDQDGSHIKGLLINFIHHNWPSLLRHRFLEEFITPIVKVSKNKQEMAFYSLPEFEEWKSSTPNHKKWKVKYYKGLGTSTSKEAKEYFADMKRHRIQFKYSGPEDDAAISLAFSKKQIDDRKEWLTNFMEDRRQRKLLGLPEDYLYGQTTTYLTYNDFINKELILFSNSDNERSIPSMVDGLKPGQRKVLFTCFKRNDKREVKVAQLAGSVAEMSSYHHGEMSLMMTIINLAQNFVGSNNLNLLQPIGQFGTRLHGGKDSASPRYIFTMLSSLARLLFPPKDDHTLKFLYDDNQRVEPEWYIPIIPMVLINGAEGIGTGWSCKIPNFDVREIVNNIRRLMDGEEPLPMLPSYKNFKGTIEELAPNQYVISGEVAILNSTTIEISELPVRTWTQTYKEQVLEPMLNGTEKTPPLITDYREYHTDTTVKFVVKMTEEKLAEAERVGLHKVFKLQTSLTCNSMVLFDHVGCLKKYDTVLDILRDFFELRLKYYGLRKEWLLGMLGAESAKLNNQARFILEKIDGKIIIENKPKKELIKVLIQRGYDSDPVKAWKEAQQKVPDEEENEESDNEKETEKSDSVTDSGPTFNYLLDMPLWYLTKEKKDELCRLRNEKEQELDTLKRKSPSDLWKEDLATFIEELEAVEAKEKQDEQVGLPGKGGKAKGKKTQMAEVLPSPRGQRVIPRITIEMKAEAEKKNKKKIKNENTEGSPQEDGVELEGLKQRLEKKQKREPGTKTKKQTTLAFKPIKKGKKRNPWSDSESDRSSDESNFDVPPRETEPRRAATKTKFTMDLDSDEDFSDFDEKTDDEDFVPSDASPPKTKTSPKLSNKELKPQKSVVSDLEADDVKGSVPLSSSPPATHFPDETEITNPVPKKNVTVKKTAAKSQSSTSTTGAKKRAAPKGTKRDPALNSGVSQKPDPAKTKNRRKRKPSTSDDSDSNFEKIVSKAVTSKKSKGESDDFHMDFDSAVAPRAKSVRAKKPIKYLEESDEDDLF

[9] = target: DNA topoisomerase 2-alpha (Homo sapiens) (UniProt P11388); test: Inhibition of human DNA topoisomerase-2-mediated decatenation of kinetoplast DNA at 10 uM after 1 hr by electrophoretic analysis relative to control
[10] = target: DNA topoisomerase 2-alpha (Homo sapiens) (UniProt P11388); test: Inhibition of human DNA topoisomerase-2-mediated decatenation of kinetoplast DNA at 30 uM after 1 hr by electrophoretic analysis relative to control
[11] = target: DNA topoisomerase 2-alpha (Homo sapiens) (UniProt P11388); test: Inhibition of human DNA topoisomerase-2-mediated decatenation of kinetoplast DNA at 50 uM after 1 hr by electrophoretic analysis relative to control
[12] = as §3; type: functional; conditions: Ca-Ski, 72 h, read-out: Activity
HepG2 [13] = test: Cytotoxicity against human HepG2 cells after 3 days by MTT assay; type: functional, cell-based; conditions: HepG2, 72 h
[14] = Cytotoxicity against human KATO III cells after 3 days by MTT assay; type: functional, cell-based, KATO III cell; conditions: 72 h
Calf thymus DNA [15] = test: Binding affinity to calf thymus DNA assessed as change in melting temperature at 30 uM by thermal denaturation assay; type: nucleic-acid assay; conditions: Bos taurus
Bos taurus [16] = species: Bos taurus; test: Displacement of ethidium bromide from calf thymus DNA by Stern-Volmer plot analysis
[17] = Cytotoxicity against human ChaGo cells after 3 days by MTT assay; type: functional, cell-based; conditions: 72 h
SW-620 [18] = test: Cytotoxicity against human SW620 cells after 3 days by MTT assay; type: functional, cell-based; conditions: SW-620, 72 h
Bos taurus [19] = species: Bos taurus; test: Displacement of ethidium bromide from calf thymus DNA by fluorescence spectroscopic analysis
BT-474 [20] = test: Cytotoxicity against human BT474 cells after 3 days by MTT assay; type: functional, cell-based; conditions: BT-474, 72 h

SMILES: CC1=Cc2nc(C)cc3cc(OC(=O)c4ccc(Cl)cc4)cc(c23)O1
- Activity (BT-474 [1]): inactive
- Activity (ChaGo): inactive
- Activity (SW-620 [2]): inactive
- Activity (HepG2 [3]): inactive
- Activity (KATO III cell): inactive
- Activity (Ca-Ski): inactive

SMILES: CC1=Cc2nc(C)cc3cc(O[Se]c4ccccc4)cc(c23)O1
- pIC50 [4]: 4.53
- viability at 100 µM (BT-474 [1]): > 20%
- viability at 100 µM [5]: > 20%
- viability at 100 µM (SW-620 [2]): > 20%
- viability at 100 µM (HepG2 [3]): > 20%
- viability at 100 µM [6]: > 20%
- Activity (WI-38): Non-toxic
- Tm (Calf thymus DNA [7]): 70 °C
- inhibition [8]: > 95%
- inhibition [9]: 31.5%
- inhibition [10]: 75.7%
- inhibition [11]: 95.7%

SMILES: CCC(=O)Oc1cc2c3c(nc(C)cc3c1)C=C(C)O2
- Activity (BT-474 [1]): inactive
- Activity (ChaGo): inactive
- Activity (SW-620 [2]): inactive
- Activity (HepG2 [3]): inactive
- Activity (KATO III cell): inactive
- Activity (Ca-Ski): inactive

SMILES: CC1=Cc2nc(C)cc3cc(OCCO)cc(c23)O1
- Activity (BT-474 [1]): inactive
- Activity (ChaGo): inactive
- Activity (SW-620 [2]): inactive
- Activity (HepG2 [3]): inactive
- Activity (KATO III cell): inactive
- Activity (Ca-Ski): inactive

SMILES: CCCC(=O)Oc1cc2c3c(nc(C)cc3c1)C=C(C)O2
- Activity (BT-474 [1]): inactive
- Activity (ChaGo): inactive
- Activity (SW-620 [2]): inactive
- Activity (HepG2 [3]): inactive
- Activity (KATO III cell): inactive
- Activity (Ca-Ski): inactive

SMILES: CC1=Cc2nc(C)cc3cc(OC(=O)CCCBr)cc(c23)O1
- Activity (BT-474 [1]): inactive
- Activity (ChaGo): inactive
- Activity (SW-620 [2]): inactive
- Activity (HepG2 [3]): inactive
- Activity (KATO III cell): inactive
- Activity (Ca-Ski): inactive

SMILES: CCCCC(=O)Oc1cc2c3c(nc(C)cc3c1)C=C(C)O2
- Activity (BT-474 [1]): inactive
- Activity (ChaGo): inactive
- Activity (SW-620 [2]): inactive
- Activity (HepG2 [3]): inactive
- Activity (KATO III cell): inactive
- Activity (Ca-Ski): inactive

SMILES: CC1=Cc2nc(C)cc3cc(OC(=O)c4ccc([N+](=O)[O-])cc4)cc(c23)O1
- Activity (BT-474 [1]): inactive
- Activity (ChaGo): inactive
- Activity (SW-620 [2]): inactive
- Activity (HepG2 [3]): inactive
- Activity (KATO III cell): inactive
- Activity (Ca-Ski): inactive

- Tm (Calf thymus DNA [7]): 70.7 °C
SMILES: CC1=Cc2nc(C)cc3cc(O)cc(c23)O1 [CASSIARIN A]
- viability at 100 µM (BT-474 [1]): > 20%
- viability at 100 µM [5]: > 20%
- viability at 100 µM (SW-620 [2]): > 20%
- viability at 100 µM (HepG2 [3]): > 20%
- viability at 100 µM [6]: > 20%
- viability at 100 µM [12]: > 20%

SMILES: CC1=Cc2nc(C)cc3cc(OC(=O)c4ccc(C)cc4)cc(c23)O1
- Activity (BT-474 [1]): inactive
- Activity (ChaGo): inactive
- Activity (SW-620 [2]): inactive
- Activity (HepG2 [3]): inactive
- Activity (KATO III cell): inactive
- Activity (Ca-Ski): inactive

- Tm (Calf thymus DNA [7]): 75.7 °C
- ΔTm (Calf thymus DNA [15]): 4.8 °C
- KSV (Bos taurus [16]): 4.3 ×10³ /M
- inhibition [8]: inactive
SMILES: CC1=Cc2nc(C)cc3cc(OCCOCCO)cc(c23)O1
- pIC50 (HepG2 [13]): 4.53
- pIC50 [14]: 4.99
- viability at 100 µM (BT-474 [1]): > 20%
- viability at 100 µM [5]: > 20%
- viability at 100 µM (SW-620 [2]): > 20%
- viability at 100 µM [12]: > 20%
- Activity (WI-38): Non-toxic

- Tm (Calf thymus DNA [7]): > 86 °C
- ΔTm (Calf thymus DNA [15]): > 15.3 °C
- KSV (Bos taurus [16]): 2.1 ×10⁴ /M
- Kapp (Bos taurus [19]): 2.1 ×10⁶ /M
- inhibition [8]: 30.1%
SMILES: CC1=Cc2nc(C)cc3cc(OCCN(C)C)cc(c23)O1
- pIC50 [17]: 4.53
- pIC50 (SW-620 [18]): 5.01
- pIC50 (HepG2 [13]): 5.00
- pIC50 [14]: 5.01
- pIC50 [4]: 4.52
- viability at 100 µM (BT-474 [1]): > 20%
- Activity (WI-38): Non-toxic

SMILES: CC1=Cc2nc(C)cc3cc(OC(=O)c4ccc(F)cc4)cc(c23)O1
- Activity (BT-474 [1]): inactive
- Activity (ChaGo): inactive
- Activity (SW-620 [2]): inactive
- Activity (HepG2 [3]): inactive
- Activity (KATO III cell): inactive
- Activity (Ca-Ski): inactive

SMILES: CN(C)CCN1C(=O)c2cccc3cc(N)cc(c23)C1=O [AMONAFIDE]
- pIC50 (BT-474 [20]): 4.42
- pIC50 [17]: 5.98
- pIC50 (SW-620 [18]): 6.49
- pIC50 (HepG2 [13]): 5.77
- pIC50 [14]: 5.03
- pIC50 [4]: 5.00
- Activity (WI-38): Toxic
- Tm (Calf thymus DNA [7]): 78.9 °C
- ΔTm (Calf thymus DNA [15]): 8.2 °C
- inhibition [8]: 61.8%
